Laboratory results from patent publication US20250236608A1, “EGFR INHIBITORS” (Blueprint Medicines Corporation, priority 2022, published 2025).

Tests used:
[1] = biological target: pEGFR (Tyr1068) in PC-9 cells (Ex19Del) (Homo sapiens (Human), UniProt P00533, DEL746-750); assay: PC-9 pEGFR AlphaLISA assay; type: cell-based; details: 4 hours incubation, p-EGFR (Tyr1068) AlphaLISA, read-out: Ext pEGFR_PC-9 Ex19Del IC50
In short: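 Phospho-EGFR (Tyr1068) was quantified by AlphaLISA SureFire Ultra in lysates of PC-9 cells exposed for 4 h to compound (4-fold, 10-point dilutions).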

[2] = biological target: EGFR L858R (Homo sapiens (Human), UniProt P00533, L858R); assay: Biochemical EGFR inhibition assay, EGFR L858R; details: Caliper mobility shift; 1.0 mM ATP or ATP Km; read-out: Enz EGFR_L858R IC50
Chain of EGFR L858R (P00533 25-1210 L858R): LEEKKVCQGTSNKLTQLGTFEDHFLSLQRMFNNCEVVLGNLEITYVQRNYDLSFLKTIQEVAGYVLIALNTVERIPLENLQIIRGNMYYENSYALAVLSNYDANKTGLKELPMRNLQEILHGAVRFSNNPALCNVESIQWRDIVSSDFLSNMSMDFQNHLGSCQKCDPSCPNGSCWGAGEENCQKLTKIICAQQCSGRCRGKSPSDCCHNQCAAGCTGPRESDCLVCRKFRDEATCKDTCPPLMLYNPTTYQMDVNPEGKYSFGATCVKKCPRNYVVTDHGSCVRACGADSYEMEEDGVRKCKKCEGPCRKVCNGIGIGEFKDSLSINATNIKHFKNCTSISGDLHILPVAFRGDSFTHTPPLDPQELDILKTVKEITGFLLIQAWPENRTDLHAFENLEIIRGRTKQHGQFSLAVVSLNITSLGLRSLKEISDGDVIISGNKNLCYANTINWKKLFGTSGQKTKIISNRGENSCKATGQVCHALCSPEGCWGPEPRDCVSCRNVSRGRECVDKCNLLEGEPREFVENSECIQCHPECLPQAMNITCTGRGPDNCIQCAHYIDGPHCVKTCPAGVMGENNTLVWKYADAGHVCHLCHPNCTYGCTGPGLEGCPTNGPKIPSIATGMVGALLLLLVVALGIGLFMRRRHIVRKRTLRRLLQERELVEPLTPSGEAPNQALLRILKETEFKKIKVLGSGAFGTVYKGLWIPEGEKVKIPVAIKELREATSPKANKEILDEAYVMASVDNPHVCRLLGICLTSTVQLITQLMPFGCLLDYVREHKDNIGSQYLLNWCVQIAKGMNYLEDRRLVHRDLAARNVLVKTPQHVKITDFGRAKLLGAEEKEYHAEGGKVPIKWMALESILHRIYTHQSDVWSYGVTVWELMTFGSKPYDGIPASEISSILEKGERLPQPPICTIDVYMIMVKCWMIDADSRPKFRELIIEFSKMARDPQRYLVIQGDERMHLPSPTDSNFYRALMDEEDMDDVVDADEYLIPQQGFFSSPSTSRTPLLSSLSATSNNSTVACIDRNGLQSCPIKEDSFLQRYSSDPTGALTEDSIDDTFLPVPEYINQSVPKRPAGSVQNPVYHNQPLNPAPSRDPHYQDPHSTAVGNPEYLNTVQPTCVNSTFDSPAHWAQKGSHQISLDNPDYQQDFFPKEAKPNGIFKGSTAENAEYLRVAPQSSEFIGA

[3] = biological target: EGFR (d746-750) (Homo sapiens (Human), UniProt P00533, DEL746-750); assay: Biochemical EGFR inhibition assay, EGFR (d746-750); details: Caliper mobility shift; 1.0 mM ATP or ATP Km; read-out: Enz EGFR_Exon19-del746-750 IC50
Chain of EGFR (d746-750) (P00533 other isoform, or with tags, fused parts or gaps del 1-694/del 746-750 limits assumed): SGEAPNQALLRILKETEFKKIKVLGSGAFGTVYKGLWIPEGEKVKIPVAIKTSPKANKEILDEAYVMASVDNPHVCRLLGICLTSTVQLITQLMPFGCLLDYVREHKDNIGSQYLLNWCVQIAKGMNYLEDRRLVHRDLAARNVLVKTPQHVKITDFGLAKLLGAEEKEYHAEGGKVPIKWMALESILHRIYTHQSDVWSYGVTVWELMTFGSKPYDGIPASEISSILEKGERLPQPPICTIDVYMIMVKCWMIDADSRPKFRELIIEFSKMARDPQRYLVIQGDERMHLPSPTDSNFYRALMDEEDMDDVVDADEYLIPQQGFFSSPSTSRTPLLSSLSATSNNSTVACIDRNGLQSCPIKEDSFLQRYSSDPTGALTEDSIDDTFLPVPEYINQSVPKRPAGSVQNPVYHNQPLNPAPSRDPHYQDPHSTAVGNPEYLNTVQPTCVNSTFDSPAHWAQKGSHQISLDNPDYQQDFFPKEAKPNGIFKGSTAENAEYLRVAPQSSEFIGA

Chain of pEGFR (Tyr1068) in PC-9 cells (Ex19Del) (P00533 other isoform, or with tags, fused parts or gaps del 746-750): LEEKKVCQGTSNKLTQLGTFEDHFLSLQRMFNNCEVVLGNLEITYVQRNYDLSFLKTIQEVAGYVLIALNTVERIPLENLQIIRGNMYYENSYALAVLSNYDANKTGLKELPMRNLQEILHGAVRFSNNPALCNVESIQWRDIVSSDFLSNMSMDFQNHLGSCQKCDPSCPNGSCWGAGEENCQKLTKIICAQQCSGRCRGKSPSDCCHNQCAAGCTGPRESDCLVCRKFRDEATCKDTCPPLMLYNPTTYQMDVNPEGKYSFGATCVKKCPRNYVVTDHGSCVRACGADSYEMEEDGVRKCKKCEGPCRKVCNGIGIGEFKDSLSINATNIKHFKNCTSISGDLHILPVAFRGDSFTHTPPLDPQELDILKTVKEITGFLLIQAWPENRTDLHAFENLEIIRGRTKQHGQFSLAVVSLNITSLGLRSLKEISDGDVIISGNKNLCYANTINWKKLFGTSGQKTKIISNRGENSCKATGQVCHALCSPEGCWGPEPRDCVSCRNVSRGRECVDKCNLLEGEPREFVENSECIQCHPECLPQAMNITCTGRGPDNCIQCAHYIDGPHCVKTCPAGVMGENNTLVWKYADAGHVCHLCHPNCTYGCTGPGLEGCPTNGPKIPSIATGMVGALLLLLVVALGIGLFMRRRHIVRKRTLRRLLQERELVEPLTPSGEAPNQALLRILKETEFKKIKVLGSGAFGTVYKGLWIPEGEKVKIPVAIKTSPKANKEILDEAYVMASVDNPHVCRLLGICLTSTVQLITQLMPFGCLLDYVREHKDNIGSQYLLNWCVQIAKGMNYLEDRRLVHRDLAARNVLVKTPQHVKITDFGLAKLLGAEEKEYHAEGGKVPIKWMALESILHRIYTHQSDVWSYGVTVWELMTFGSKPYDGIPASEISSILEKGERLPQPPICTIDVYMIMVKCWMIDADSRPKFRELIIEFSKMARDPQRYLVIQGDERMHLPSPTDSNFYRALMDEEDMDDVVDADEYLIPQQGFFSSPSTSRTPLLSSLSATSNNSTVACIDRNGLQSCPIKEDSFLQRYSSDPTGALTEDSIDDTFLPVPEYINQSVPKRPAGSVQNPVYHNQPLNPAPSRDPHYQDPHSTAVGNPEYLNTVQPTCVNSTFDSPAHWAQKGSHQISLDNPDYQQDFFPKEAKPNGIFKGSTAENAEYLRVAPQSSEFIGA

IC50 [1] [nM] | IC50 [2] [nM] | IC50 [3] [nM] | SMILES
4.6 | 3.1 | 1.7 | COc1cc2ncnc(-c3cn(C)nc3-c3ccccc3)c2cc1NC(=O)c1ccncc1 [Example 351, N-(7-methoxy-4-(1-methyl-3-phenyl-1H-pyrazol-4-yl)quinazolin-6-yl)isonicotinamide]
0.3 | 0.5 | 0.3 | COc1cc2ncnc(-c3cn(C)nc3-c3ccccc3)c2nc1O[C@@H](C)c1cscn1 (single isomer, unassigned) [Example 50, (S)-4-(1-((7-methoxy-4-(1-methyl-3-phenyl-1H-pyrazol-4-yl)pyrido[3,2-d]pyrimidin-6-yl)oxy)ethyl)thiazole or (R)-4-(1-((7-methoxy-4-(1-methyl-3-phenyl-1H-pyrazol-4-yl)pyrido[3,2-d]pyrimidin-6-yl)oxy)ethyl)thiazole]
5.1 | 3.8 | 1.7 | COc1cc2ncnc(-c3cn(C)nc3-c3ccccc3)c2cc1OC(=O)N1CCO[C@@H](C)[C@@H]1C [Example 72, 7-methoxy-4-(1-methyl-3-phenyl-1H-pyrazol-4-yl)quinazolin-6-yl (2S,3S)-2,3-dimethylmorpholine-4-carboxylate]
0.7 | 2.5 | 1.3 | COc1cc2ncnc(-c3cn(CC(F)F)nc3-c3ccccc3)c2nc1NC(=O)[C@H]1CCN1C [Example 391, (R)—N-(4-(1-(2,2-difluoroethyl)-3-phenyl-1H-pyrazol-4-yl)-7-methoxypyrido[3,2-d]pyrimidin-6-yl)-1-methylazetidine-2-carboxamide]
4 | 3.2 | 2.3 | COc1cc2ncnc(-c3cn(C)nc3-c3ccccc3)c2cc1NC(=O)N1CCN(C)[C@@H]2C[C@@H]21 (stereo in doubt) [Example 186, N-[7-methoxy-4-(1-methyl-3-phenyl-1H-pyrazol-4-yl)quinazolin-6-yl]-5-methyl-2,5-diazabicyclo[4.1.0]heptane-2-carboxamide]
1.5 | 1.6 | 0.9 | COc1cc2ncnc(-c3cn(C)nc3-c3ccccc3)c2cc1NC(=O)c1cn(C(F)(F)F)nc1C [Example 235, N-(7-methoxy-4-(1-methyl-3-phenyl-1H-pyrazol-4-yl)quinazolin-6-yl)-3-methyl-1-(trifluoromethyl)-1H-pyrazole-4-carboxamide]
0.5 | 1.2 | 1 | COc1cc2ncnc(-c3cn(CC(F)F)nc3-c3ccccc3)c2cc1NC(=O)c1ccns1 [Example 272, N-(4-(1-(2,2-difluoroethyl)-3-phenyl-1H-pyrazol-4-yl)-7-methoxyquinazolin-6-yl)isothiazole-5-carboxamide]
0.6 | 1.4 | 0.9 | COc1cc2ncnc(-c3c[nH]nc3-c3ccccc3)c2cc1[C@@H]1CCCCO1 (single isomer, unassigned) [Example 132, (S)-7-methoxy-4-(3-phenyl-1H-pyrazol-4-yl)-6-(tetrahydro-2H-pyran-2-yl)quinazoline or (R)-7-methoxy-4-(3-phenyl-1H-pyrazol-4-yl)-6-(tetrahydro-2H-pyran-2-yl)quinazoline]
3.8 | 3 | 1.5 | COc1cc2ncnc(-c3cn(C)nc3-c3ccccc3F)c2cc1N1CCOCC1 [Example 159, 4-(4-(3-(2-fluorophenyl)-1-methyl-1H-pyrazol-4-yl)-7-methoxyquinazolin-6-yl)morpholine]
11.2 | 6.7 | 3.5 | COc1cc2ncnc(-c3cn(C)nc3-c3ccccc3)c2cc1NC(=O)C12CC(F)(C1)C2 [Example 342, 3-fluoro-N-(7-methoxy-4-(1-methyl-3-phenyl-1H-pyrazol-4-yl)quinazolin-6-yl)bicyclo[1.1.1]pentane-1-carboxamide]
1.9 | 1.7 | 0.9 | CCn1cc(-c2ncnc3cc(OC)c(N4CCOCC4)cc23)c(-c2ccccc2)n1 [Example 169, 4-(4-(1-ethyl-3-phenyl-1H-pyrazol-4-yl)-7-methoxyquinazolin-6-yl)morpholine]
